pIC50: −log10 of the molar value.
Tests used:
[1] = system: morphine antinociception; experiment: warm-water tail immersion test, blockade of morphine antinociception; details: sc, 5 min before morphine 10 mg/kg sc; 56 °C; tested 20 min later
[2] = biological target: μ opioid receptor (MOR) (Mus musculus, UniProt P42866); experiment: competitive radioligand binding, [3H]naloxone, monocloned receptor in CHO cells
[3] = system: antinociception; experiment: warm-water tail immersion test, agonist; details: doses up to 100 mg/kg
[4] = biological target: MOR (Mus musculus, UniProt P42866); experiment: 35S-GTP[γS]-binding functional assay in MOR expressing CHO cells; assay type: biochemical; details: Emax relative to full agonist DAMGO (3 μM)
[5] = biological target: W318A mutant MOR (Mus musculus, UniProt P42866, W318A); assay type: binding
W318A mutant MOR, sequence (P42866 whole entry W318A): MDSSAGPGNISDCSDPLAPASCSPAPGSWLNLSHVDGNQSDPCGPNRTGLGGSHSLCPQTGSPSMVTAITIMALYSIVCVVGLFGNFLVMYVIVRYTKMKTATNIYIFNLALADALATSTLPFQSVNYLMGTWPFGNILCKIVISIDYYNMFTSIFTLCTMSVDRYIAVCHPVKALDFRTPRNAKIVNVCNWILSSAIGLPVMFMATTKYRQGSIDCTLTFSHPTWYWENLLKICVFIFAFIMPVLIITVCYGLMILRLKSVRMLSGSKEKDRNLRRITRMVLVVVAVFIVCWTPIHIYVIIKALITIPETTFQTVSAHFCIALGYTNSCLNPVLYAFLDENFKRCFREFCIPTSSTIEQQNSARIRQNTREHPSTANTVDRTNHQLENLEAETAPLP

μ opioid receptor (MOR), sequence (P42866 whole entry): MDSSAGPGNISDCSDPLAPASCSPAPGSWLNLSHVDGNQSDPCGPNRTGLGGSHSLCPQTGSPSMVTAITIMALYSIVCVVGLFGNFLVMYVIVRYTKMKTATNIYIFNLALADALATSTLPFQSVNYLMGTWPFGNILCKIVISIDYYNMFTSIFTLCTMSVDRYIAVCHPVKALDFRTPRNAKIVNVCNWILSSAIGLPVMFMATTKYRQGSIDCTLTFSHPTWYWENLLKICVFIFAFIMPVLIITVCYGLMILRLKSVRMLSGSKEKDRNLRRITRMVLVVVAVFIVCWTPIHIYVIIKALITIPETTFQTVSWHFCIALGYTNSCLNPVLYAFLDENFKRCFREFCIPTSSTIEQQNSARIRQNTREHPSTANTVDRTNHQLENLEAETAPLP
MOR, sequence (P42866 whole entry): as above

Row | Structure (SMILES) | AD50 value (mg/kg (95% CL)) for blockade of morphine antinociception [1] | further results
1 | C=CCN1CC[C@]23c4c5ccc(O)c4O[C@H]2C(=O)CC[C@@]3(O)[C@H]1C5 [naloxone, reference compound] | 0.05 (0.03–0.09) mg/kg | 
2 | O=C(N[C@H]1CC[C@@]2(O)[C@H]3Cc4ccc(O)c5c4[C@@]2(CCN3CC2CC2)[C@H]1O5)c1cnc2ccccc2c1 [Compound 13, 17-Cyclopropylmethyl-3,14β-dihydroxy-4,5α-epoxy-6α-[(3′-quinolyl)acetamido]morphinan] | 4.45 (2.41–8.15) mg/kg | 
3 | O=C(N[C@@H]1CC[C@@]2(O)[C@H]3Cc4ccc(O)c5c4[C@@]2(CCN3CC2CC2)[C@H]1O5)c1cnc2ccccc2c1 [Compound 14, 17-Cyclopropylmethyl-3,14β-dihydroxy-4,5α-epoxy-6β-[(3′-quinolyl)acetamido]morphinan] | 42.55 (23.67–76.51) mg/kg | 
4 | O=C(N[C@@H]1CC[C@@]2(O)[C@H]3Cc4ccc(O)c5c4[C@@]2(CCN3CC2CC2)[C@H]1O5)c1cc2ccccc2cn1 [Compound 10] | inactive | 
5 | O=C(N[C@H]1CC[C@@]2(O)[C@H]3Cc4ccc(O)c5c4[C@@]2(CCN3CC2CC2)[C@H]1O5)c1cc2ccccc2cn1 [Compound 9, 17-Cyclopropylmethyl-3,14β-dihydroxy-4,5α-epoxy-6α-[(3′-isoquinolyl)acetamido]morphinan] | 0.45 (0.27–0.78) mg/kg | selectivity for the MOR over the DOR [2]: over 200 fold; selectivity for the MOR over the KOR [2]: approximately 50 fold; agonist effect in tail immersion test [3]: neither of these ligands produced any agonist effect; % max of DAMGO [4]: approximately 20%; pIC50 [5]: < 6.00

Source: article PMC2880636 (Journal of medicinal chemistry, 2009)
